“Also recorded” adds a separate entry of the source.
Experiments:
[1] = test system: Neuronal/Glial Cortical Cultures; assay: Hypoxia-induced lactate dehydrogenase release (cell injury) in neuronal/glial cortical cultures; format: cell-based, rat (Sprague Dawley); conditions: Rattus norvegicus, read-out: % Inh (percent inhibition of the release of lactate dehydrogenase in comparison to hypoxic control cultures)
Method: An assay was conducted to compare the inhibitory action of various compounds which are the subject of the present invention. The assay measured the oxygen deprivation-induced neuronal cell death from various cortical cultures. Lactate dehydrogenase (LDH) is a cytosolic enzyme that is only present in the extracellular medium if cell membranes rupture, indicating cell death. Therefore, LDH release into the culture medium is a convenient assay of cell death. The results of Table 3 indicate that each of the compounds tested decreased neuronal cell death from hypoxia in vitro.
The uteri of Sprague Dawley rats in their 18th day of fetal gestation were removed under halothane anesthesia and placed in a chilled bath of magnesium and calcium-free Hank's balanced salt solution (HBSS). Cortical brain hemispheres were removed from individual fetuses and digested in 0.1% trypsin in HBSS for 15 minutes at room temperature. Digested tissue was washed three times with HBSS then dissociated into a single cell suspension by trituration with a glass pipette. […] One hundred microliters of this cell suspension was pipetted into individual wells of 96-well tissue culture plates previously coated with poly-L-lysine, then stored in a humidified incubator (37° C., 3% CO2). Glial cell growth was stopped by the addition of 100 μL of 45% DME, 45% HAM F12, and 10% Horse serum (10/0 DME/F12) containing 15 μg/mL of 5-fluoro-2-deoxyuridine and 35 μg/mL of uridine, 3 days after the initial plating. Cultures were fed at 2- or 3-day intervals thereafter by replacing 100 μL of spent medium with an identical volume of fresh 10/0 DME/F12.
Sixteen-day-old cultures were prepared for experiments by removing growth medium from each culture well and rinsing once with 250 μL of Mg^++ -free HBSS containing 1.8 mM Ca^++ and 1 g/L D-glucose (0 Mg-HBSS) Control and test agent solutions, prepared using 0 Mg-HBSS medium, were dispensed in 50 μL aliquots into individual test wells (Total volume/well=50 μL). All liquid medium preparations to this point were equilibrated with […], 5% CO2. Plates were placed into a 37° C., humidified, triple-gas incubator with O2 and CO2 levels maintained at 1% and 10%, respectively. Plates were removed after 7.5 hours of oxygen deprivation and restored to normoxic conditions (20% O2 /10% CO2, 37° C.) following a 50 μL addition to each well of appropriate control or test agent solutions containing 1.8 mM Ca^++, 1.6 mM Mg^++, and 7.0 g/L D-glucose. Final medium concentrations of 1.8 mM Ca^++, 0.8 mM Mg^++, and 4 g/L D-glucose were present during the reoxygenation period.
Medium concentrations of lactate dehydrogenase (LDH), a cytosolic enzyme normally retained by cells but released upon cell death, were determined for each well following an additional 16.5-hour normoxic exposure period. Individual 25 μL medium specimens were collected from each well and placed into wells of a clean 96-well microtiter plate containing 225 μL of 0.1 M KPO4 buffer (pH=7.5 at 25° C.) and 30 μg NADH (reduced […] adenine dinucleotide). After 10-minute incubation at 37° C., 30 μL of 2.4 mM sodium pyruvate was added to each well and plates were gently shaken to mix solution. Plates were immediately placed into a Multiscan MCC/340 plate reader and scanned for […] (excitation at 340 nm) for 1 minute at 5-second intervals. A kinetic analysis of the change in medium absorbance resulting from shifts in NADH concentrations was used, in combination with factors to correct for temperature, light path, and volume adjustments to determine medium LDH concentrations (IU/mL). Normoxic control baseline LDH levels were subtracted from both hypoxic control and test agent values prior to determining test agent effectiveness in preventing oxygen deprivation-induced injury.

Hippocampal Slices [2] = assay: Recovery of synaptic activity (EPSP) in hippocampal slices after hypoxia-hypoglycemia (Example 3); format: cell-based, rat (male Wistar); conditions: for percentage of slices that recovered EPSPs: control approximately 5%
Method: An in vitro model with rat hippocampal brain slices exposed to hypoxia-hypoglycemia was used to simulate ischemia. Neuroprotection was measured by the recovery of excitatory postsynaptic potentials after reoxygenation.
(§1) Young male Wistar rats (150 to 250 g) were anesthetized with ketamine (200 mg/kg IP) and ether and were perfused transcardially with cold, oxygenated, low sodium-containing physiological buffer solution (252 mM sucrose, 3.5 mM KCl, 1.0 mM MgSO4, 20 mM CaC1, 26 mM NaHCO3, 1.25 mM NaH2 PO4, and 10 mM glucose) with 50 μM ketamine added. Brains were removed and hippocampi carefully excised. Hippocampi were sliced transversely at 450 μm and transferred into cold (4° C.) low-sodium buffer solution gassed with 95% O2, 5% CO2 at 31° C. After 45 minutes slices were transferred to oxygenated normal physiological solution (126 mM NaCl, 3.5 mM KCl, 1.0 mM MgSO4, 2.0 mM CaCl2, 20 mM NaHCO3, 1.25 mM NaH2 PO4, and 10 mM glucose) at 31° C. for at least 1 hour before experiments began. After preincubation, slices were transferred to a heated (36° C.), gassed incubation chamber where they were continuously superfused with gassed normal physiological solution. Evoked extracellular synaptic potentials (EPSPs) were obtained using glass micropipettes placed approximately 100 μm into the slice. Electrical stimulation was applied once per minute to the stratum radiatum by insulated paired nichrome wires (60 μm diameter). Stimuli consisted of 150 μA pulses lasting 0.4 msec. The 150 μA stimulus usually gave nearly a maximal EPSP (excitatory postsynaptic potential) amplitude. Data from a slice were used only if EPSP amplitude was greater than 2.0 mV before hypoxia-hypoglycemia.
(§2) Evoked potentials were recorded and analyzed with a digital computer interface. Experiments were started by recording for several minutes under normal conditions (95% O2, 5% CO2, 10 mM glucose). Then drug was added to the superfusion solution (or normal solution was continued in control experiments). After 10 minutes of drug superfusion, hypoxia-hypoglycemia was induced by switching to superfusion solution containing added drug with low glucose (2 mM) that was equilibrated with 95% N2 and 5% CO2. At the same time the slice chamber gas was switched to 95% N2 and 5% CO2. Hypoxia-hypoglycemia was continued for 12 minutes. After 12 minutes, 95% O2 and 10 mM glucose were returned to the slices and the superfusing solution. Following 15 minutes of reoxygenation, the experiment was ended. EPSPs were considered recovered if they returned to at least half of their original amplitude. The percentage of slices with recovered EPSPs were calculated for each condition.

Hippocampal Slices [3] = assay: Effect on synaptic potentials / presynaptic action potential in slices before hypoxia; format: cell-based, rat (male Wistar)
Method: as §1, with “Electrical stimulation was applied once per minute to the stratum radiatum by insulated paired nichrome wires (60 μm diameter). Stimuli consisted of 150 μA pulses lasting 0.4 msec. The 150 μA stimulus usually gave nearly a maximal EPSP (excitatory postsynaptic potential) amplitude. Data from a slice were used only if EPSP amplitude was greater than 2.0 mV before hypoxia-hypoglycemia.” left out
Evoked potentials were recorded and analyzed with a digital computer interface. […] The percentage of slices with recovered EPSPs were calculated for each condition.
Excitatory synaptic potential (EPSP) amplitude was measured before and during drug treatment in the 10-minute period preceding reduced oxygen and glucose. […]

[4] = test system: voltage-dependent sodium channels; conditions: cited from earlier work
Hippocampal Slices [5] = assay: Recovery of synaptic activity (EPSP) in hippocampal slices after hypoxia-hypoglycemia (Example 4); format: cell-based, rat (male Wistar); conditions: for recovery of EPSPs, overall effect: concentrations tested in Table 2
Method: as §1, with “The 150 μA stimulus usually gave nearly a maximal EPSP (excitatory postsynaptic potential) amplitude.” left out
as §2
This study was identical in design to Example 3 except that during the hypoxic period of 12 minutes, glucose was reduced from 10 mM to 2 mM rather than from 10 mM to zero as in Example 3.

[6] = test system: neuroprotective capabilities; assay: Neuroprotective capabilities in vitro (general statement); format: cell-based
cytokinin activity = conditions: cited from earlier work
[7] = in vivo; cited from earlier work

## Cc1cccc(C)c1NC(=O)Nc1ccncc1 [N-(2,6-dimethylphenyl)-N'-4-pyridinyl urea]
[1]
  inhibition at 30 µM: 106%
  inhibition at 100 µM: 81%

## O=C(Nc1ccncc1)Nc1c(Cl)cccc1Cl [N-(2,6-Dichlorophenyl)-N'-4-pyridinyl urea]
[1]
  inhibition at 30 µM: 62%
  inhibition at 100 µM: 88%

## Cc1cccc(Cl)c1NC(=O)Nc1ccncc1 [N-(2-chloro-6-methylphenyl)-N'-4-pyridinyl urea]
Hippocampal Slices [2]; 0.5 μM
  Number Slices Recovered / Number Slices Tested (≥50% EPSP amplitude recovery after reoxygenation): 0/8
  changes from hypoxia: not different from control treatments
Hippocampal Slices [2]; 2 μM
  Number Slices Recovered / Number Slices Tested (≥50% EPSP amplitude recovery after reoxygenation): 3/8
  mean EPSP amplitude after hypoxia: near significance
  percentage of slices that recovered EPSPs: 37%
Hippocampal Slices [2]; 2 μM and 20 μM
  protection / improved recovery of EPSPs: significant protection of hippocampal slices from irreversible loss of synaptic potentials; also recorded: improves recovery of EPSPs
Hippocampal Slices [2]; 20 μM
  Number Slices Recovered / Number Slices Tested (≥50% EPSP amplitude recovery after reoxygenation): 9 out of 10
  mean EPSP amplitude after hypoxia: significant with a high degree of confidence; also recorded: almost complete recovery of EPSPs
  protection from loss of EPSPs: almost complete protection from loss of EPSPs
  percentage of slices that recovered EPSPs: 90%
Hippocampal Slices [2]; 20 μM, listed as Test drug
  Number Slices Recovered / Number Slices Tested (≥50% EPSP amplitude recovery after reoxygenation): 9/10
Hippocampal Slices [2]; concentration-related, 0.5-20 μM
  mean EPSP amplitude after hypoxia, overall effect: significantly increased the mean EPSP amplitude after hypoxia; also recorded: increased EPSP amplitude following hypoxia in a concentration-dependent manner
Hippocampal Slices [3]; concentrations used, before hypoxia
  effect on EPSP / presynaptic action potential amplitude: none of the concentrations tested reduced EPSP or presynaptic action potential amplitude
[1]
  inhibition at 30 µM: 101%
  inhibition at 100 µM: 80%
[4]
  action on voltage-dependent sodium channels: modulates voltage-dependent sodium channels of nerve cell membranes; also recorded: modulator of neuronal voltage-gated sodium ion channels

## NC(=O)N1c2ccccc2C=Cc2ccccc21 [Carbamazepine, carbamazepine]
Hippocampal Slices [5]; 20 μM
  Number Slices Recovered / Number Slices Tested (≥50% EPSP amplitude recovery after reoxygenation): 2/9
Hippocampal Slices [5]; 50 μM
  Number Slices Recovered / Number Slices Tested (≥50% EPSP amplitude recovery after reoxygenation): 4/10
[1]
  inhibition at 30 µM: 53%
  inhibition at 100 µM: 95%
[6]
  neuroprotective capabilities: shown in vitro to have neuroprotective capabilities
[4]
  action on voltage-dependent sodium channels: more selective for sodium channels

## O=C(Nc1ccncc1)Nc1ccc(Cl)c(Cl)c1 [N-(3,4-dichlorophenyl)-N'-4-pyridinyl urea]
Cytokinin activity
  cytokinin activity: show such activity

## COCCOC(=O)C1=C(C)NC(C)=C(C(=O)OC(C)C)C1c1cccc([N+](=O)[O-])c1 (centres unmarked) [Nimodipine, nimodipine]
Hippocampal Slices [5]; 1 μM
  prevention of ischemic damage / loss of EPSPs: failed to prevent loss of EPSPs
Hippocampal Slices [5]; 1.0 μM
  Number Slices Recovered / Number Slices Tested (≥50% EPSP amplitude recovery after reoxygenation): 1/9
[4]
  concentration at which it interacts with sodium channels: greater than 10 μM

## Cc1cccc(Cl)c1NC(=O)/C=C1\SCC(=O)N1C [ralitoline]
[6]
  neuroprotective capabilities: shown in vitro to have neuroprotective capabilities

## O=C(Nc1cccnc1)Nc1ccc(Cl)c(Cl)c1 [N-(3,4-dichlorophenyl)-N'-3-pyridinyl urea]
Cytokinin activity
  cytokinin activity: show such activity

## CCN(CC)CC(=O)Nc1c(C)cccc1C [Lidocaine, lidocaine]
Hippocampal Slices [5]; 50 μM
  Number Slices Recovered / Number Slices Tested (≥50% EPSP amplitude recovery after reoxygenation): 5/9
Hippocampal Slices [5]; 200 μM
  Number Slices Recovered / Number Slices Tested (≥50% EPSP amplitude recovery after reoxygenation): 9/10
  protection from loss of EPSPs: almost complete protection
Hippocampal Slices [5]
  recovery of EPSPs, overall effect: improves recovery of EPSPs at both concentrations tested
Hippocampal Slices [5]; listed as lidocaine
  recovery of EPSPs, overall effect: enhanced recovery of EPSPs
Hippocampal Slices [3]; 500 μM
  effect on presynaptic action potential and EPSPs: reversibly reduced both presynaptic action potential and EPSPs
[6]
  neuroprotective capabilities: shown in vitro to have neuroprotective capabilities
[4]
  action on voltage-dependent sodium channels: more selective for sodium channels
[7]
  peripheral hypotensive effects: peripheral hypotensive effects

## Nc1nnc(-c2cccc(Cl)c2Cl)c(N)n1 [Lamotrigine, lamotrigine]
[1]
  inhibition at 30 µM: 68%
  inhibition at 100 µM: 83%
[6]
  neuroprotective capabilities: shown in vitro to have neuroprotective capabilities

Source: patent US6133299A, “Methods for treating neurodegenerative diseases and disorders using N-(2,6-disubstituted aromatic)-N'-pyridinyl ureas and other anticonvulsant compounds” (Warner-Lambert Company, priority 1993, dated 2000)
